Data: article PMC8494816 (Scientific Reports, 2021)

Experiments:
patients with RUCC = details: cited from earlier work; for efficacy in treating RUCC patients: phase IIa setting
[1] = molecular target: P2X3 homotrimeric receptors; set-up: method as in PMID 30902655; details: cited from earlier work
[2] = molecular target: P2X2/3 heterotrimeric receptors; set-up: method as in PMID 30902655; details: cited from earlier work
animal models = system: animal models; set-up: method as in PMID 30902655; details: cited from earlier work
rP2X3 receptors = molecular target: T1, rP2X3 receptors (Rattus norvegicus, UniProt P49654); assay: cell-based
T1 sequence (P49654 1-397): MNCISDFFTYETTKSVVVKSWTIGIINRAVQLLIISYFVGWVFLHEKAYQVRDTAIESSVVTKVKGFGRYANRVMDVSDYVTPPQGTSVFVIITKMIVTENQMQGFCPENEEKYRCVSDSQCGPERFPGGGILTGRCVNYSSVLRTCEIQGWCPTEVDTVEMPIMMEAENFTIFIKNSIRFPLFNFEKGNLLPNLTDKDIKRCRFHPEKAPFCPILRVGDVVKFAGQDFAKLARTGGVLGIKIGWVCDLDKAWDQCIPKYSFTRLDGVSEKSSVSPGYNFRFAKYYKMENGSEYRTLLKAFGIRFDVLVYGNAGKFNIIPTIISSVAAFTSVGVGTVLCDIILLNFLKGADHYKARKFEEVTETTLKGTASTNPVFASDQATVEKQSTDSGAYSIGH
Protocol: (§1) Cells were maintained in Dulbecco’s Modified Eagle Medium (DMEM) media (Sigma) supplemented with 10% fetal bovine serum (FBS) (Sigma) in a humidified incubator with 5% CO2 at 37 °C.
(§2) P2X receptor-induced changes in intracellular calcium levels were monitored using the calcium-chelating dye, Fluo-4AM (Molecular Probes), quantitated with a fluorescence imaging plate reader (FLEX/FLIPR station; Molecular Devices, Sunnyvale, CA, USA). Cells expressing P2X3 or P2X2/3 receptors were plated at a density of 15,000 cells/well in collagen-coated 384-well plates approximately 20 h before assay.

rP2X2/3 receptors = molecular target: T2, rP2X2/3 receptors (Rattus norvegicus, UniProt P49653+P49654); assay: FLIPR calcium flux assay, recombinant cells; type: cell-based
T2 sequence (P49654 1-397): T1 sequence (P49654 1-397)
T2 sequence (P49653 1-472): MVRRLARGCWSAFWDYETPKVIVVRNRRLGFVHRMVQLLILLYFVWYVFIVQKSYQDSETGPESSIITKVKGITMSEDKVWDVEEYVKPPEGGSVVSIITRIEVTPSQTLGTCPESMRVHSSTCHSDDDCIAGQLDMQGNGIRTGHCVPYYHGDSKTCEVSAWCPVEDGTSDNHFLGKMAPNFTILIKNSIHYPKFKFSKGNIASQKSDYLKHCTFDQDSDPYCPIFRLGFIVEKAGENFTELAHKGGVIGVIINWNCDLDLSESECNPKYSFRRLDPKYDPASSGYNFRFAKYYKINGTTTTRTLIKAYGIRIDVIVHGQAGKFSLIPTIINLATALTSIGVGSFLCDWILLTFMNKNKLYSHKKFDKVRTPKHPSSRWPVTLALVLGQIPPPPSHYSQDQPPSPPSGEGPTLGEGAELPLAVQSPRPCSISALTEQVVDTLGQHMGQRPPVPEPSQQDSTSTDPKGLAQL
Protocol: as §1, §2

[3] = molecular target: T3, native channels from DRG (predominately P2X3 receptors) (Rattus norvegicus, UniProt P49654); assay: Whole-cell patch-clamp assay in rat neurons (DRG); type: cell-based; details: female Sprague Dawley rat neurons, α,β-meATP 10 µM
T3 construct: native channels from both DRG (predominately P2X3 receptors) and nodose ganglia (NDG, predominately P2X2/3 receptors) rat tissues; from tissue; host or cells: primary neurons from dorsal root ganglia (L6–L4) of female Sprague Dawley rats
T3 sequence (P49654 1-397): T1 sequence (P49654 1-397)
Protocol: Experiments were performed under the whole-cell patch-clamp configuration at a holding potential of – 80 mV at room temperature. […] The cells were dissociated with Accumax, centrifuged at 1000 rpm for 3 min, re-suspended in manual patch-clamp buffer, and then plated in dishes at a density of ~ 50,000 cells/dish. The currents were recorded using HEKA amplifiers and Patchmaster software (HEKA Electronics). The bath solution contained 140 mM NaCl, 5 mM KCl, 1 mM CaCl2, 2 mM MgCl2, 25 mM HEPES, and 10 mM glucose, at pH 7.4. The intracellular solution contained 140 mM CsCl, 10 mM HEPES, and 10 mM BAPTA, at pH 7.0. […] The recordings were performed in a cumulative manner with 4- or 8-min incubation times per compound concentration. Hexokinase (50 U/mL) was added to reduce channel desensitization when recording human and rat P2X3 receptor neurons. A seal resistance of minimum 250 MΩ and a series resistance of less than 20 MΩ were applied as quality control parameters. The effect at each concentration of antagonist was determined according to the following equation: % response = (100 * Idrug)/Icontrol), where Icontrol was the peak current amplitude of the last agonist addition prior to incubation with the antagonist, and Idrug was the peak current amplitude in the presence of an antagonist. Each concentration of antagonist was tested on a minimum of three independent cells. […]

[4] = system: neurogenic plasma extravasation in female Sprague Dawley rats; assay: Rat model of uterine neurogenic inflammation (mustard oil, Evans blue); type: in vivo; details: i.v. bolus 0.7 mg/kg then infusion 0.2 mg/kg/h, vs vehicle, P < 0.01
Protocol: In this model, neurogenic inflammation was induced in anesthetized female Sprague Dawley rats by injecting mustard oil, an algogenic and sensitizing irritant, into the left uterine horn. Uterine inflammation leads to neurogenic plasma extravasation in the skin of the lower abdomen, which can be visualized via the injection of Evans blue dye[17]; the degree of inflammation can then be quantified by counting the number of blue dots.
Mustard oil (10% solution in mineral oil) was then injected into the left uterine horn (0.25 mL/rat), and 2-h later, Evans blue was injected intravenously. After 30 min, animals were killed by cardiac flushing with sterile saline. Uterine neurogenic inflammation was assessed by counting the number of blue dots on the ventral and dorsal sides in the abdominal region as an indicator of cutaneous neurogenic plasma extravasation following chemical uterine inflammation, as previously described[17].
All data are expressed as mean (or mean ± SD), unless otherwise indicated. Data were analyzed with either GraphPad Prism (v6.03, https://www.graphpad.com/scientific-software/prism/) or the Excel Fit software. […] For the rat neurogenic inflammation and dyspareunia models, data were analyzed by computing the mean number of skin dots or AUCs, respectively, for each treatment group and at each time point of the study (where appropriate). […]

Half-life in humans = details: human, in vivo; data not shown
Half-life in rats = details: rat, in vivo; data not shown
hP2X1 receptors = molecular target: T4, hP2X1 receptors (Homo sapiens, UniProt P51575); assay: Recombinant cell line selectivity assay
T4 sequence (P51575 1-399): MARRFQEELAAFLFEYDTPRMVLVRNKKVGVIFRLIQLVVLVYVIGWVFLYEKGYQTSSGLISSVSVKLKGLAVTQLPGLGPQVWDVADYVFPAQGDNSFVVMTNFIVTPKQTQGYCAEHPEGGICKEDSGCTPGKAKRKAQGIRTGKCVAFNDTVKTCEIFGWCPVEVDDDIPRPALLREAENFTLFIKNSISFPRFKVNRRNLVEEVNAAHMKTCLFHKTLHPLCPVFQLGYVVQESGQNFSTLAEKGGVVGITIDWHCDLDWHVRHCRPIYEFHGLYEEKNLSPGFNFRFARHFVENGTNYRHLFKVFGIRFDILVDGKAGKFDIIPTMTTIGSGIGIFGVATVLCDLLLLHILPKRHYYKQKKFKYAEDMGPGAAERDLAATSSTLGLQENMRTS

[5] = molecular target: T5, homotrimeric hP2X4 receptor (Homo sapiens, UniProt Q99571); assay: Recombinant cell line selectivity assay
T5 sequence (Q99571 1-388): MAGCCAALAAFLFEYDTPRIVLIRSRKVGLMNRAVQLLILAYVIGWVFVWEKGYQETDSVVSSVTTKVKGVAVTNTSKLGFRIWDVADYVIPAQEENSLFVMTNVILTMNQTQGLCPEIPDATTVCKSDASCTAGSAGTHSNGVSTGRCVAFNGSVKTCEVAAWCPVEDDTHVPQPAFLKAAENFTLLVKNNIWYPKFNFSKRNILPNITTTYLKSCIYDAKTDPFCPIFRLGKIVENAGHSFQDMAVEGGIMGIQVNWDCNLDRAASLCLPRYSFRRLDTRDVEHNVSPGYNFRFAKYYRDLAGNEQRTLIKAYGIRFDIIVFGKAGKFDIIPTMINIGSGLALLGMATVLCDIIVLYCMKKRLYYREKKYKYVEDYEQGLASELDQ

[6] = molecular target: T6, homotrimeric hP2X7 receptor (Homo sapiens, UniProt Q99572); assay: Recombinant cell line selectivity assay
T6 sequence (Q99572 1-595): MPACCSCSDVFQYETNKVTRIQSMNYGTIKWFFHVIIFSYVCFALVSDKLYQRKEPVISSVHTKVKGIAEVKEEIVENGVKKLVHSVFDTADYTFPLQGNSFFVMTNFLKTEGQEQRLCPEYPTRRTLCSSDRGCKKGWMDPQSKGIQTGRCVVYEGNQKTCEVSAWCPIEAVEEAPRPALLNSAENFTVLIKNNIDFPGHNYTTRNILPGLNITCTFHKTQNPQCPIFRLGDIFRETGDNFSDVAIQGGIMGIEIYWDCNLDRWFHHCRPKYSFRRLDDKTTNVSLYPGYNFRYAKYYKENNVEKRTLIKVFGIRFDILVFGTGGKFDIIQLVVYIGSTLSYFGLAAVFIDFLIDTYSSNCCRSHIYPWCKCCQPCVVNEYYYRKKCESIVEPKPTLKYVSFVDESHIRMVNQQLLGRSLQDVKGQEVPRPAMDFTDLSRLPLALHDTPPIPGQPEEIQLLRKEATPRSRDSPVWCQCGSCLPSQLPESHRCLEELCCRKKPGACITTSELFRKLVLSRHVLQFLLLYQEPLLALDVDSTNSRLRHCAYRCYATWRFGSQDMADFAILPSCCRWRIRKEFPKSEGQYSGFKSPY

[7] = system: vaginal hyperalgesia in female Sprague Dawley rats; assay: Rat dyspareunia model (VMR to vaginal distension); details: vs vehicle
Protocol: The visceromotor response (VMR) to vaginal distension using an inflated vaginal balloon was determined by counting the number of abdominal muscle contractions via electromyography (EMG) in conscious animals as an objective measure of vaginal sensitivity. […] The VMR response to vaginal distension was measured at week five (on-drug) and week six (one week off-drug) post-implantation of uterine horn pieces.
The VMR to vaginal distension was used in conscious animals as an objective measure of vaginal sensitivity. […] In addition, to measure the VMR response, two Teflon-coated wire electrodes (AS632; Cooner Wire, USA) were sutured in the external oblique abdominal muscle, and then tunneled subcutaneously to be exteriorized at the base of the neck for future access. […] On the day of VMR assessment, a lubricated small balloon (embolectomy catheter 5F, 1 cm in length; IsoMed, France) was inserted into the mid-vaginal canal. […] The magnitude of the VMR at each vaginal distension test was quantified by counting manually the number of EMG spike bursts (or abdominal muscle contractions) per period of 40 s (= 0.1 mL distension volume). […] For each animal, the cumulative number of abdominal contractions was calculated and plotted against vaginal distension volume, and the corresponding AUC was calculated. […]
All data are expressed as mean (or mean ± SD), unless otherwise indicated.

[8] = system: CFA-induced hyperalgesia in female C57BL/6 mice; assay: Mouse CFA-induced mechanical hyperalgesia model (von Frey); details: oral twice daily, 48 h after CFA
Protocol: In this model, mechanical hyperalgesia was induced in female C57BL/6 mice (n = 9) by injecting CFA into the plantar surface of one hind paw and assessed using von Frey filaments. The filaments were used to stimulate the hind paw, and a behavioral response was measured depending on the strength of the von Frey filament used (expressed in [g]). […] Compounds were administered orally, twice daily, starting one hour before CFA injection. […] Mechanical hyperalgesia was induced in female C57BL/6 mice by injecting 30 µL of undiluted CFA into the medial left plantar hind paw. […] Mice were placed individually in transparent Plexiglas enclosures set on a wire mesh floor for at least 60 min prior to testing. Mechanical response thresholds were determined using calibrated von Frey monofilaments applied to the plantar surface of hind paws. The simplified up-down method[69] was used to estimate the 50% withdrawal threshold of contralateral and ipsilateral paws. […] All dose formulations were letter coded and administered to the animals by a technician not involved in conducting the behavioral von Frey testing. All von Frey measurements were performed by a second experimenter who was blinded to the treatments received by the animals. Upon completion of the experiments, mice were euthanized by exposure to carbon dioxide.

[9] = system: CFA-induced mechanical hyperalgesia in male Sprague Dawley rats; assay: Rat CFA-induced mechanical hyperalgesia model (PAM, paw withdrawal threshold)
Protocol: Mechanical hyperalgesia was induced in 32 healthy male Sprague Dawley rats by injecting 25 µL of CFA (1 mg/mL) unilateral into the plantar surface of one hind paw. Mechanical hyperalgesia was measured using the Pressure Application Measurement apparatus (Ugo Basile, Comerio, Italy). Briefly, a linearly increasing pressure was applied to an area of ~ 50 mm^2 of the plantar side of the hind paw until a behavioral response (paw withdrawal) was observed, or until the pressure reached 1000-g force. The pressure at which the behavioral response occurred was recorded as the PWT. Both CFA-injected and contralateral PWTs were determined for each rat, in each treatment group, and at each time point of the study. […] All dose formulations were letter coded and administered to the animals by one technician not involved in conducting the behavioral PAM testing. All PAM measurements were performed by a second technician who was blinded to the treatments received by the animals.
All data are expressed as mean (or mean ± SD), unless otherwise indicated. Data were analyzed with either GraphPad Prism (v6.03, https://www.graphpad.com/scientific-software/prism/) or the Excel Fit software. For the rat hyperalgesia model, data were analyzed by computing the mean PWT for each treatment group, for CFA-injected and non-injected hind paws, and at each time point of the study. Mechanical hyperalgesia in vehicle control group was evaluated by carrying out an unpaired t-test between ipsilateral and contralateral paw values at each time point. The effect of the test compound on hyperalgesia was evaluated by performing a two-way repeated measures-ANOVA on ipsilateral paw values, followed by a Dunnett’s post-hoc test, provided that a main effect for treatment was detected. The effect of the test compound on contralateral response was evaluated following the same statistical procedure. […] A Grubbs’ test was also performed on individual values to reveal potential outliers. A p-value of < 0.05 was considered statistically significant.

## C[C@@H](Cn1c(=O)[nH]/c(=N\c2ccc(Oc3ccccn3)cc2)n(Cc2ccc(Cl)cc2)c1=O)C(=O)O [S-600918]
Patients with RUCC; patients with RUCC (n = 31)
  cough reduction and taste disturbance: reduce cough with a low incidence of taste disturbance
Patients with RUCC
  efficacy in treating RUCC patients: shown efficacy

## CNC(=O)c1cc(F)c(-c2nc3cc(C)ccn3c2C[C@H]2CN(C(=O)OC)CCO2)c(F)c1 [BLU-5937]
Patients with RUCC; subjects with RUCC
  primary endpoint in phase IIa study: did not reach its desired primary endpoint
[1]
  IC50: 0.025 µM
[2]
  IC50: > 24 µM
Animal models
  antitussive efficacy and taste disturbances in animal models: antitussive efficacy with a lack of taste disturbances

## COc1cc(C(C)C)c(Oc2cnc(N)nc2N)cc1S(N)(=O)=O [gefapixant]
Patients with RUCC; latest phase III data, RUCC
  taste-related AEs, participants: 58–69%

## Cc1cnc(-c2cc(O[C@@H]3CCOC3)cc(C(=O)N[C@H](C)c3cnc(C(F)(F)F)nc3)c2)s1 [eliapixant]
rP2X3 receptors
  IC50: 0.004 µM
rP2X2/3 receptors
  IC50: 0.023 µM
[3]
  IC50: ~0.019 µM
[4]
  number of blue dots on the skin (neurogenic plasma extravasation): significantly reduced number of blue dots on the skin
Half-life in humans
  half-life: > 24 h
Half-life in rats
  half-life: ~2.8 h
Patients with RUCC; phase IIa and Ph IIb study in patients with RUCC
  tolerability and taste-related adverse events: well tolerated with a low rate of mild taste-related adverse events
Patients with RUCC
  efficacy in treating RUCC patients: shown efficacy
hP2X1 receptors
  IC50: 50 µM
[5]
  IC50: 50 µM
[6]
  IC50: 50 µM
[7]; 15 mg/kg oral twice daily weeks 4-5, 6 weeks post-implantation, P < 0.01
  vaginal hyperalgesia (AUC of cumulative abdominal contractions), 1 week off drug: significantly decreased vaginal hyperalgesia
[7]; 15 mg/kg oral twice daily, 5 weeks post-implantation, P < 0.05
  vaginal hyperalgesia (AUC of cumulative abdominal contractions), on drug: significantly decreased vaginal hyperalgesia
[8]
  minimal effective oral dose, reversal of hyperalgesia in CFA-injected paw: 5 mg/kg
[9]; rat CFA model, data not shown
  receptor occupancy corresponding to plasma exposures at which efficacy (reversal of hyperalgesia > 50%) was observed: 80%
[9]; rat, oral 1 mg/kg, n = 8, P < 0.05
  effect on mechanical hyperalgesia (PWT), low dose: moderate and statistically significant at 2 h post-treatment
[9]; rat, oral 3 mg/kg, n = 8, 2, 4, 6 h, P < 0.05 to 0.0001
  effect on mechanical hyperalgesia (PWT), medium dose: robust and significant at each time point of the study
[9]; rat, oral 10 mg/kg, n = 8, 2, 4, 6 h, P < 0.05 to 0.0001
  effect on mechanical hyperalgesia (PWT), high dose: robust and significant at each time point of the study
[9]; rat, oral, 1, 3, 10 mg/kg, 24 h after CFA, 2, 4, 6 h post-dose
  effect on mechanical hyperalgesia (Paw Withdrawal Threshold): significantly reduced mechanical hyperalgesia in a dose-dependent manner
